Measurements from patent US20260345605A1, “THERAPEUTIC AGENTS FOR HEART FAILURE” (Ottawa Hospital Research Institute, priority 2023, published 2026).

Columns and labels:
cardiac fibrosis = assay: Cardiac fibrosis by Masson's trichome staining in PE rat model; format: in vivo, Sprague Dawley rat
Experimental: (§1) Animal Model Preparation. Sprague Dawley rats were continuously treated with phenylephrine (PE), an α-adrenergic agonist that causes vasoconstriction leading to increased afterload and decreased ventricular function, to create a left-ventricular dysfunction animal model. […] For chronic infusion of phenylephrine, Alzet® mini-osmotic pumps (2002, Durect® Corp) containing Phenylephrine (PE) (10 mg/kg/day) or PBS vehicle were surgically implanted dorsally and subcutaneously in each Sprague Dawley rat under isoflurane anaesthesia. The animals were allowed to develop left ventricular hypertrophy for 2 weeks following the osmotic pump implantation.
(§2) Echocardiography was performed, the animals were sacrificed at 3 weeks endpoint and the blood and tissue were harvested for further analysis.
The rat model was prepared as described in Example 12, and the cardiac tissue harvested at the end of the 3 weeks was prepared with Masson's trichome staining methodology, which is a histological technique used to visualize and assess connective tissue, particularly collagen, within biological samples.

[1] = test system: iPS cell-derived cardiomyocytes (iCell Cardiomyocytes); assay: Secondary screening: morphometric analysis of iCell Cardiomyocytes; format: cell-based, human
From the text: A library of 800 small molecule compounds that can stimulate favorable cardiac adaptation in primary neonatal rat ventricular myocytes (NRVM) was screened. To identify the beneficial modifiers of hypertrophy, the Cellomics Arrayscan High Throughput Screening platform was employed to quantify morphometric features such as, for example, length, width, and length to width ratio from images acquired using a 10× lens for DAPI-labeled nuclei and CY3 labeled α actinin stained cardiomyocytes in a 96 well format. The lead compound was also screened in iPSC derived cardiomyocytes as a part of secondary screening as it offers a physiologically relevant human cell-based model.
(§3) A secondary screening was performed with 10 drugs identified from primary screening for their ability to induce physiological remodeling using morphometric analysis and measuring the levels of B-type natriuretic peptide (BNP), as a surrogate indicator of the hypertrophic response using ELISA. The compounds were selected based on the highly enriched targets identified in the drug set enrichment analysis with a high Z score. Cryopreserved iPS cell-derived cardiomyocytes (“iCell Cardiomyocytes”) obtained from Cellular Dynamics International (CDI, Madison, WI) were used as a cell model to perform the screening.
The cells were plated at a density of 2.5×10^4 cells onto 25 mm diameter fibronectin coated glass coverslips in plating media for 48 hours. The media was replaced with Supplemented William's E (SWE) medium (SWE) media supplemented with cocktail containing penicillin-streptomycin, ITS+(insulin, transferrin, selenium complex, BSA, and linoleic acid), GlutaMAX™, and HEPES (Primary Hepatocyte Maintenance Supplements-GIBCO) for 48 hours. The cells were treated with controls (CT1-40 ng/mL, PE-100 uM) and drugs (AZD1152-HQPA, LY283519) at varying concentrations (2.5, 1, 0.5, and 0.25 uM) for 24 hours.
Post treatments, the cells were washed, fixed and treated with primary antibody, secondary antibody similar to the protocol of Example 3. The effect on the morphometric parameters was assessed using Cellomics Arrayscan Vti HCS reader. The Image acquisition was performed using the Zeiss AxioVision SE64 Imaging software and analyzed using the ImageJ2 software.
iCell cardiomyocytes were seeded at a density of 10,000 cells per well in a 96 well plate format. The cells were maintained as in Example 3 and were treated with controls (hCT1, PE) and drugs (AZD1152-HQPA, LY283519) at four different concentrations for 24 hours. The cells were then fixed and stained with a Actinin for cardiomyocytes followed by nuclear staining with DAPI. The plates were analyzed in Cellomics Arrayscan Vti HCS reader to assess morphometric changes following treatment.

[2] = test system: neonatal rat ventricular cardiomyocytes; assay: Calcium transients (Fura2-AM) in neonatal rat ventricular cardiomyocytes; format: cell-based; details: for contractility / contractile function: inferred from peak calcium transient, AUC and time to peak
Experimental: Method: Freshly isolated wildtype neonatal rat ventricular cardiomyocytes were plated onto laminin coated glass coverslides, rinsed once and then loaded with 1 μM Fura2-AM (Life Technologies) for 15 min at 37 °C. After washing the cells thrice with Tyrode solution, measuring chambers were transferred onto a Nikon Eclipse TE2000-U microscope equipped with a fluorescence detection system (IonOptix). Ca^2+ transient values were recorded according to the corresponding FRET experiments. F340/F380 values in Fura2-AM experiments were calculated from the ratios of 510 nm emission light measured at 340 and 380 nm excitations.

[3] = test system: phenylephrine induced left ventricular hypertrophy; assay: Phenylephrine-induced left ventricular hypertrophy rat model: heart weight and echocardiography; format: in vivo, Sprague Dawley rat
Experimental: as §1, §2

cardiomyocytes (NRVMs) = assay: Oxygen consumption rate of cardiomyocytes (Seahorse Mito Stress Test); format: cell-based, neonatal rat; details: 24 h treatment; vs untreated control; FIG. 12
Experimental: OCR detection of cardiomyocytes was conducted with the Seahorse Xfe 24 analyzer (Agilent, Santa Clara, USA). Cardiomyocytes were seeded at a density of 8×10^4/well in a special Seahorse 24-well plate (102342-100, Seahorse). After treating with hCT1, PE and drug for 24 h, the medium was replaced with XF medium containing 10 mM D-(+)-glucose (G7021, Sigma-Aldrich), and 1 mM sodium pyruvate (11360070, Thermo Fisher). The plates were placed in a CO2-free 37 °C incubator for an hour before the measurement. A Seahorse XF Cell Mito Stress Test Kit (103015-100, Seahorse) was used for detection. The basal respiration of the NRVMs was detected, and ATP-linked OCR was analyzed after treatment with 1 μM oligomycin (ATP synthase inhibitor). Then, the uncoupling agent carbonyl [COMPOUND LEFT OUT] 4-(trifluoromethoxy) phenylhydrazone (FCCP) 0.5 μM was injected to detect maximal respiration. Finally, rotenone and antimycin A (AR) were used to abolish mitochondrial respiration by inhibiting complexes I and III, respectively.

[4] = test system: NT Pro-BNP (iCell Cardiomyocyte); assay: NT Pro-BNP ELISA in iCell Cardiomyocyte supernatants; format: cell-based, human; details: 24 hour; for Mean NT Pro-BNP levels: iCell Cardiomyocyte, UT 2407.521; for Pro-NT BNP levels compared to UT and CT1 treated cells: iCell cardiomyocytes
Experimental: as §3
Pro-NT BNP levels in the culture media were measured following the 24 hour treatment using the Human NT Pro-BNP DuoSet ELISA kit (R&D Systems, Minnesota USA) as per the manufacturer's instruction. […] The plates were read on BMG BioTek Molecular Devices SpectraMax Microplate Reader at 450 nm to obtain the optical density followed by reading at 540 nm for wavelength correction.
Protein levels were identified by plotting a 4 parametric logistic regression curve using the standards provided with the kit.

[5] = systole and diastole, PE compared to control and LY2835219 group
[6] = LY2835219 alone and in rats subjected to phenylephrine
[7] = PE treated rats, 3 weeks LY2835219 75 mg/kg/day oral

For CNC[C@H](O)c1cccc(O)c1 [PE, phenylephrine], which cardiac fibrosis (cardiac fibrosis; PE, compared to control sham animals) is on record?
The cardiac fibrosis was “significant increase in cardiac fibrosis”.

What about the Mean Cardiomyocyte Length ([1]; 24 h, 100 µM) of the same compound?
Its Mean Cardiomyocyte Length is 191 µm.

And the “area under the curve (AUC) of calcium transient” value ([2]; compared to control, FIG. 11)?
The value was “much higher AUC”.

What about the calcium transient levels ([2]; compared to control, FIG. 11) of the same compound?
Its calcium transient levels is “aberrant increase calcium transient levels”.

What about the “time to peak calcium transient” value ([2]; compared to control, FIG. 11) of the same compound?
Its value is “decreased time to peak calcium transient”.

What about the “contractility / contractile function” value [2] of the same compound?
The value was “defective contractile function of cardiomyocytes”.

And the “Heart Weight/Body Weight ratio” value ([3]; PE 10 mg/kg/day, compared to sham (PBS), LY2835219 alone, and PE 2 weeks followed by 3 weeks LY2835219)?
Its value is “significantly increased”.

What about the “heart size (whole heart image)” value ([3]; PE treated group compared to control and drug treatment group, FIG. 14) of the same compound?
The value was “enlarged”.

And the cardiac output ([3]; PE treated rats, after 2 weeks)?
Its cardiac output is “decreased”.

What about the ejection fraction ([3]; PE treated rats, after 2 weeks) of the same compound?
The ejection fraction was “decreased”.

What about the percentage fractional shortening ([3]; PE treated rats, after 2 weeks) of the same compound?
Its percentage fractional shortening is “decreased”.

And the stroke volume ([3]; PE treated rats, after 2 weeks)?
The stroke volume was “decreased”.

And the “left ventricular internal diameter” value ([3]; PE treatment group)?
Its value is “reduced”.

And the “thickness of left ventricular anterior wall” value [3, 5]?
Its value is “increased thickness”.

What about the “thickness of left ventricular posterior wall” value [3, 5] of the same compound?
The value was “increased thickness”.

And the “thickness of septal wall” value [3, 5]?
Its value is “increased thickness”.

And the “oxygen consumption rate (OCR)” value (cardiomyocytes (NRVMs))?
The value was “reduced oxygen consumption rate”.

What about the “Mean NT Pro-BNP levels” value ([4]; control PE) of the same compound?
Its value is 3236.015 pg/mL.

What about the “Pro-NT BNP levels compared to UT and CT1 treated cells” value [4] of the same compound?
Its value is “significantly elevated levels”.

For CCN1CCN(Cc2ccc(Nc3ncc(F)c(-c4cc(F)c5nc(C)n(C(C)C)c5c4)n3)nc2)CC1 [LY2835219], which cardiac fibrosis (cardiac fibrosis; LY2835219 in animals subjected to PE treatment) is on record?
Its cardiac fibrosis is “did reduce fibrosis”.

And the cardiac fibrosis (cardiac fibrosis; LY2835219 treatment alone)?
Its cardiac fibrosis is “did not induce fibrosis”.

What about the Mean Cardiomyocyte Length ([1]; iCell Cardiomyocyte, drug 0.25 μm, 24 hours, UT 213.01323) of the same compound?
Its Mean Cardiomyocyte Length is 221 µm.

What about the Mean Cardiomyocyte Length ([1]; iCell Cardiomyocyte, drug 0.5 μm, 24 hours, UT 213.01323) of the same compound?
Its Mean Cardiomyocyte Length is 239 µm.

And the Mean Cardiomyocyte Length ([1]; iCell Cardiomyocyte, drug 1 μm, 24 hours, UT 213.01323)?
The Mean Cardiomyocyte Length was 242 µm.

And the Mean Cardiomyocyte Length ([1]; iCell Cardiomyocyte, drug 2.5 μm, 24 hours, UT 213.01323)?
The Mean Cardiomyocyte Length was 245 µm.

And the Eccentric cardiac remodeling ([1]; iCell cardiomyocyte, 1 uM, FIG. 4A)?
Its Eccentric cardiac remodeling is “Eccentric cardiac remodeling was observed”.

And the “cardiomyocyte length compared with CT1 treated cells” value ([1]; iCell cardiomyocytes on coverslips, 24 hours)?
Its value is “comparable cardiomyocyte length”.

What about the “length in iCell cardiomyocyte compared to hCT1” value ([1]; iCell cardiomyocytes, 96 well, four concentrations, 24 hours) of the same compound?
Its value is “increased length in iCell cardiomyocyte comparable to length induced by hCT1”.

And the “area under the curve (AUC) of calcium transient” value ([2]; compared to control, FIG. 11)?
The value was “increased AUC compared to control”.

What about the calcium transient levels ([2]; compared to control, FIG. 11) of the same compound?
The calcium transient levels was “increase in calcium transient levels compared to control”.

And the “contractility / contractile function” value [2]?
Its value is “improved contractility by modest increase in peak calcium transient levels and AUC with modest decrease in time to attain those peak levels”.

What about the “effect in phenylephrine induced left ventricular hypertrophy” value ([3]; LY2835219 75 mg/kg/day oral, 3 weeks) of the same compound?
Its value is “anti-hypertrophic effect”.

And the cardiac output [3, 6]?
Its cardiac output is “improved”.

What about the ejection fraction [3, 6] of the same compound?
The ejection fraction was “improved”.

And the fractional shortening [3, 6]?
The fractional shortening was “improved”.

And the stroke volume [3, 6]?
The stroke volume was “improved”.

And the “PE effect on left ventricular internal diameter” value ([3]; PE 2 weeks followed by LY2835219 3 weeks, 75 mg/kg/day oral)?
Its value is “reversed”.

And the “cardiac function (ejection fraction, fractional shortening, stroke volume, cardiac output)” value ([3]; PE treated rats subjected to LY2835219 for 3 weeks, compared with control rats and PE treated rats)?
Its value is “significantly enhanced cardiac function”.

And the “PE effect on thickness of left ventricular anterior wall” value [3, 7]?
The value was “reversed”.

And the “PE effect on thickness of left ventricular posterior wall” value [3, 7]?
The value was “reversed”.

What about the “PE effect on thickness of septal wall” value [3, 7] of the same compound?
Its value is “reversed”.

And the “oxygen consumption rate (OCR)” value (cardiomyocytes (NRVMs))?
Its value is “increase the rate of oxygen consumption”.

What about the “Mean NT Pro-BNP levels” value ([4]; drug 0.25 μm) of the same compound?
The value was 1232.484 pg/mL.

And the “Mean NT Pro-BNP levels” value ([4]; drug 0.5 μm)?
Its value is 1226.226 pg/mL.

And the “Mean NT Pro-BNP levels” value ([4]; drug 2.5 μm)?
Its value is 1747.475 pg/mL.

What about the “Pro-NT BNP levels compared to UT and CT1 treated cells” value [4] of the same compound?
The value was “comparable and/or reduced BNP levels”.
